Data reported in publication PMC6270821, “ROS-Mediated Cytotoxic Effect of Copper(II) Hydrazone Complexes against Human Glioma Cells” (Molecules, 2014).

Legend:
pUC 19 plasmid DNA = assay: Agarose gel electrophoresis of supercoiled plasmid DNA; design: species or system Escherichia coli; conditions: 100 µM, Tris-HCl pH 7.20, 37 °C, 24 h
Method: Studies of interactions between the compounds under study and supercoiled plasmid DNA by agarose gel electrophoresis were carried out. Thus, 136 ng of purified plasmid DNA-pUC 19 from Escherichia coli (Sigma-Aldrich Brasil, São Paulo, Brazil) were incubated with compounds 1, 2 and cisplatin at 100 µM in Tris-HCl buffer (NaCl 50 mM, Tris-HCl 5 mM, pH = 7.20). The mixture was incubated at 37 °C for 24 h. Thereafter, the reactions were quenched by adding 5 µL of the loading buffer solution (50 mM Tris, pH 7.20, 0.01% bromophenol blue, 50% glycerol, and 250 mM EDTA). The samples were analyzed by 1% agarose gel electrophoresis in 0.5 × TBE buffer for 1 h 40 min at […]. The gel was stained after electrophoresis in 0.5× TBE buffer with 2.5 µg·mL^−1 ethidium bromide for 15 min and visualized by UV light.

[1] = system: T98 (p53 mutant glioblastoma multiforme) cells; assay: MTT cytotoxicity assay, T98 cells; assay type: cell-based, human; conditions: for IC50: MTT, 48 h treatment; for selectivity index (SI = IC50MRC5/IC50tumor cell), T98: T98 vs MRC5
Method: (§1) The in vitro cytotoxic effects of H2AcMe, H2BzMe and complexes 1 and 2 against wild type p53 U87 and mutant p53 T98 glioblastoma cells and against MRC-5 fibroblasts cells were tested using cisplatin as a positive control. To determine the IC50 (concentration that inhibits 50% of cell survival) values the cytotoxic effects were quantified using the 3-(4,5-dimethyl-2-thioazolyl)-2,5-diphenyl tetrazolium bromide (MTT) colorimetric assay. All tested compounds were cytotoxic against both glioma cell lines in a dose-dependent way. The IC50 values (see Table 1) were found in the micromolar range. Despite their cytotoxic activity, all compounds were less toxic to fibroblasts cells than cisplatin. CuCl2 evoked only mild cytotoxicity in all cell lineages with IC50 higher than 100 µM.
(§2) U87 (p53 wild-type glioblastoma multiforme) and T98 (p53 mutant glioblastoma multiforme) malignant human tumor cells and MRC5 (Human Fetal Lung Fibroblast) cells were obtained from the American Type Culture Collection (ATCC, Manassas, VA, USA). Cell lines were grown as monolayer in Dulbecco’s Modified Eagle’s Medium (DMEM, Gibco, Rockville, MD, USA), supplemented with 10% fetal bovine serum (Cultilab, Campinas, São Paulo, Brazil) and antibiotics (50 U/mL penicillin/50 […] streptomycin), in a humidified atmosphere air/CO2 (95%/5%) at 37 °C. Cells 80% confluents were used in all experiments. For all experiments, cells were seeded in 96-well plates, at a density of 1000 cells/well. After 24 h incubation cells were treated.
(§3) To determine the IC50 values the cytotoxic effects were quantified using the 3-(4,5-dimethyl-2-thioazolyl)-2,5-diphenyltetrazolium bromide (MTT) colorimetric assay. Briefly, cells were treated with increasing concentrations (10^−12, 10^−11, 10^−10, 10^−9, 10^−8, 10^−7, 10^−6, 10^−5, 10^−4 mol·L^−1) of either cisplatin (positive control) or test compounds (H2AcMe, H2BzMe, 1 and 2). The compounds were previously dissolved in dimethyl sulfoxide (DMSO) and the final concentrations were adjusted in DMEM in such manner that the final DMSO concentration was lower than 0.5%. Following 48 h treatment, MTT reagent was added to each well. Following another 4 h of incubation at 37 °C, DMSO was added to each well to dissolve formazan precipitate and absorbance was measured at 570 nm. Tests using DMSO (0.5% in DMEM) as negative control were carried out in parallel. All tests were performed in quadruplicates with full agreement between the results. Statistical analysis was carried out by the unpaired, one-tailed Student’s t testing using a p value of 0.05. A value of p < 0.05 was considered significant.

U87 cells = assay: ROS generation, DCFH-DA assay, U87 cells; assay type: cell-based, human; conditions: 1 × 10^−5 mol/L, 24 h
From the text: (§4) To examine the effects of H2AcMe, H2BzMe and their complexes 1 and 2 on the generation of free radicals (reactive oxygen species, ROS), we used the 2',7'-dichlorodihydrofluorescein diacetate (DCFH-DA) assay.
(§5) ROS accumulation was detected using dichlorodihydrofluorescein diacetate (DCFH-DA, Sigma). DCFH-DA is a non-fluorescent compound, that when it is taken up by passive diffusion into the cells, is hydrolyzed by esterases to yield non-permeable DCFH. In the presence of ROS, DCFH is oxidized to the fluorescent DCF. Tumor cells were treated with the compounds for 24 h and were then incubated with DCFH-DA (1 × 10^−5 mol·L^−1) for 30 min at 37 °C. Following incubation, the cells were washed twice with PBS. Thereafter, the cells were observed under the fluorescent microscope Zeiss Axionplan coupled with a digital camera at excitation and emission wavelengths of 488 and 525 nm, respectively. Data were analyzed using ImageJ (ImageJ, National Institute of Health, Bethesda, MD, USA) and expressed as percentages of DCFDA fluorescence of the corresponding control.

[2] = system: MRC5 (Human Fetal Lung Fibroblast) cells; assay: MTT cytotoxicity assay, MRC5 fibroblasts; assay type: cell-based; conditions: 48 h treatment
Method: as §1, §2, §3

[3] = system: U87 (p53 wild-type glioblastoma multiforme) cells; assay: MTT cytotoxicity assay, U87 cells; assay type: cell-based, human; conditions: for IC50: MTT, 48 h treatment; for selectivity index (SI = IC50MRC5/IC50tumor cell), U87: U87 vs MRC5
Method: as §1, §2, §3

MRC5 cells = assay: ROS generation, DCFH-DA assay, MRC5 cells; assay type: cell-based, human; conditions: 1 × 10^−5 mol/L, 24 h
From the text: as §4, §5

| SMILES | alteration in the electrophoretic mobility of pUC 19 plasmid DNA (pUC 19 plasmid DNA) | IC50 [1] [µM] | selectivity index (SI = IC50MRC5/IC50tumor cell), T98 [1] | ROS levels in U87 cells compared with T98 cells (U87 cells) | IC50 [2] [µM] | IC50 [3] [µM] | selectivity index (SI = IC50MRC5/IC50tumor cell), U87 [3] | ROS levels in MRC5 cells compared with glioma cells (MRC5 cells) |
| --- | --- | --- | --- | --- | --- | --- | --- | --- |
| CC(=O)NN=C(C)c1ccccn1.[Cl][Cu][Cl] [compound 1, [dichloro(2-acetylpyridineacetyl-hydrazone)copper(II)]] | no alteration in the electrophoretic mobility | 5.08 ± 0.41 | 4.42 | higher levels of ROS in U87 cells | 22.5 ± 3.13 | 3.02 ± 0.85 | 7.45 | lower levels of ROS in MRC5 cells |
| CC(=O)NN=C(c1ccccc1)c1ccccn1.[Cl][Cu][Cl] [compound 2, [dichloro(2-benzoylpyridineacetylhydrazone)copper(II)]] | no alteration in the electrophoretic mobility | 29.4 ± 7.06 | 1.68 | equally effective in both cell lineages | 49.4 ± 8.83 | 5.95 ± 0.74 | 8.30 | lower levels of ROS in MRC5 than in T98 glioma cells |
